From patent US9101618B2, “Method for treating and/or preventing neurodegenerative disease by adiponectin receptor agonist” (TOKYO METROPOLITAN INSTITUTE OF MEDICAL SCIENCE, priority 2011, dated 2015)
Where a SMILES comes first, the peptide text is derived from it. The star is where a group is joined. Cbz = O=C(OCc1ccccc1)*

What was measured:
[1] = test system: B103 neuroblastoma cells; assay: Induction of adiponectin mRNA expression by proteasome inhibition (RT-PCR); format: cell-based, rat; details: 10 μM, six hours, regardless of the presence of α-synuclein expression
Description: RT-PCR was performed in accordance with a method of Fujita et al. (Fujita et al., Nat. Commun. 1:110 (2010)). Total RNA was extracted from the frozen brain samples of the α (alpha)S tg mice and the non tg mice by ISOGEN (NIPPON GENE CO., LTD.), followed by performing DNase (DNase 1, Invitrogen, Life Technologies Japan Ltd.) treatment at 37° C. for 30 min. Here, cDNA was synthesized from the total RNA of 2.5 μg, using Superscript III First-Strand Synthesis system (Invitrogen, Life Technologies Japan Ltd.).
A reaction condition of PCR was as follows. That is, PCR was at first performed at 94° C. for 5 min, followed by repeating 35 times a cycle of: 95° C. for 30 sec; 55° C. for 30 sec; and 72° C. for 60 sec. Subsequently, PCR was further performed at 72° C. for 10 min before reaching a stationary state and being left standing at 4° C. PCR products were electrophoresed in 1.2% agarose gel. With regard to an mRNA amount of each gene, concentrations of ethidium bromide-stained bands of the PCR products were quantitated by densitometer (ATTO). mRNA amounts of adiponectin were standardized by mRNA amounts of cyclophilin A.
MG132 (Calbiochem, Merck & Co., Inc.) was used as a proteasome inhibitor. […] Six hours later, the aforementioned cells were collected, and expression of adiponectin mRNA was measured by RT-PCR.

[2] = test system: GSK-3β (beta); assay: Addition of p38 MAPK inhibitor and AMPK inhibitor: phospho-GSK-3β western blotting; format: cell-based, rat; details: 5 μM inhibitor 10 min, then adiponectin 1 μg/mL 30 min
Description: The aforementioned B103 neuroblastoma cells (α (alpha)S) were inoculated on the 6-well plate and cultured to a state of about 80-90% confluence. After washing with PBS, the aforementioned cells were further cultured for 10 min in an inhibition test medium prepared by adding either 5 μM p38 MAPK inhibitor (SB203580, Promega) or 5 μM AMPK inhibitor (Compound C, Calbiochem) to a serum-free medium. As a control, DMSO was added to a serum-free medium instead of the aforementioned inhibitors. Later, either recombinant human adiponectin (1 μg/mL, trimer, PROSPEC) or PBS was added so as to culture the cells for 30 min. The cells collected were then lysed with the aforementioned cell lysis solution. Supernatants were collected after performing centrifugation at 100,000×g for 30 min, and then subjected to western blotting. Here, western blotting was performed in accordance with the procedures described in example 1.
When performing western blotting to evaluate signal transduction pathways, the anti-phospho-GSK-3β (beta) (Ser9) antibody (D85E12, Cell Signaling Technology), the anti-GSK-3β (beta) antibody (BD Biosciences) and the anti-β (beta)-actin mouse monoclonal antibody (C-15, Sigma-Aldrich Japan Inc.) were used as primary antibodies after being appropriately diluted. Further, the HRP labeled anti-mouse IgG antibody (DAKO) was used as a secondary antibody after being appropriately diluted.

[3] = test system: B103 neuroblastoma cells (α (alpha)S); assay: Thioflavin T staining of adiponectin siRNA-transduced cells; format: cell-based, rat; details: α-synuclein expressing neuroblastoma cells with adiponectin expression suppressed
Description: (§1) Rat adiponectin sense strand RNA: 5′-CAAUGACUCUACAUUUACAtt-3′ (SEQ. No. 15), antisense strand RNA: 5′-UGUAAAUGUAGAGUCAUUGtt-3′ (SEQ. No. 16), sense strand RNA of random sequence in control experiment: 5′-UCUUAAUCGCGUAUAAGGCtt-3′ (SEQ. No. 17) and antisense strand RNA: 5′-GCCUUAUACGCGAUUAAGAtt-3′ (SEQ. No. 18) were prepared utilizing Takara siRNA Design Support System (http://www.takara-bio.co.jp/rnai/) (Takara Bio Inc.). The B103 neuroblastoma cells (α (alpha)S) and the B103 neuroblastoma cells (vector) for the control experiment were cultured using a commercially available 6-well plate, and were transfected using Lipofectamine 2000 (Invitrogen, Life Technologies Japan Ltd.) in a state of 30-50% confluence. After performing transfection for six hours, a medium was replaced with a DMEM containing 10% FBS. After performing cultivation for 24 hours, the medium was then replaced with a serum-free DMEM medium so as to avoid effects of adiponectin. After performing cultivation for another three days, transfected B103 neuroblastoma cells were collected so as to be subjected to a detection of an aggregate state of α (alpha)-synuclein and a measurement of proteasomal activity. Further, transfection to B103 neuroblastoma cells for thioflavin T staining were carried out on a polylysine-coated cover glass. […]

[4] = test system: B103 neuroblastoma cells; assay: Measurement of proteasomal activity in siRNA-transduced cells; format: cell-based, rat; details: compared to cells transduced with siRNA of random sequence
Description: Rat adiponectin sense strand RNA: 5′-CAAUGACUCUACAUUUACAtt-3′ (SEQ. No. 15), antisense strand RNA: 5′-UGUAAAUGUAGAGUCAUUGtt-3′ (SEQ. No. 16), sense strand RNA of random sequence in control experiment: 5′-UCUUAAUCGCGUAUAAGGCtt-3′ (SEQ. No. 17) and antisense strand RNA: 5′-GCCUUAUACGCGAUUAAGAtt-3′ (SEQ. No. 18) were prepared utilizing Takara siRNA Design Support System (http://www.takara-bio.co.jp/rnai/) (Takara Bio Inc.). The B103 neuroblastoma cells (α (alpha)S) and the B103 neuroblastoma cells (vector) for the control experiment were cultured using a commercially available 6-well plate, and were transfected using Lipofectamine 2000 (Invitrogen, Life Technologies Japan Ltd.) in a state of 30-50% confluence. After performing transfection for six hours, a medium was replaced with a DMEM containing 10% FBS. […]
siRNA-transduced B103 neuroblastoma cells were collected with HEPES buffer (50 mM HEPES (pH 7.4), 10 mM EDTA, 10 mM NaCl). […] Protein concentrations were measured, and […] thereof was dissolved in HEPES buffer containing 40 μM of benzyloxycarbonyl-Leu-Leu-Glu-amidomethylcoumarin fluorescent proteasome substrate (Chemicon, Japan Millipore Corporation). Proteasomal activity was calculated as follows. That is, a disintegrated amount of substrate was measured by Berthold Mithras LB940 microplate reader (Berthold Japan co. ltd.), according to time for one hour and at 37° C. […]

[5] = test system: B103 neuroblastoma cells (α (alpha)S); assay: Effect of adiponectin siRNA on aggregate state of α-synuclein (western blotting of soluble fractions); format: cell-based, rat; details: B103 neuroblastoma cells (αS), siRNA transduced, cultivated 72 hours, western blot
Description: as §1, with “activity.” for “activity. Further, transfection to B103 neuroblastoma cells for thioflavin T staining were carried out on a polylysine-coated cover glass.”
Extraction of each soluble fraction and quantification of protein in each soluble fraction by western blotting were performed in accordance with procedures similar to those of example 1 through example 3.

[6] = test system: α (alpha)S tg mouse; assay: Continuous nasal administration of globular adiponectin: GFAP in surfactant insoluble fraction; format: in vivo; details: versus gAPN non-administration group
Description: An α (alpha)S tg mouse and a non tg mouse were distinguished in accordance with the method described in example 2. Globular adiponectin (gAPN) was nasally administered to the α (alpha)S tg mouse and the non tg mouse on days 0, 3, 6, 9, 12, 15, 18 and 21. Further, as a control, PBS was nasally administered to the α (alpha)S tg mouse and the non tg mouse on days 0, 3, 6, 9, 12, 15, 18 and 21. When performing nasal administration, 10 μL of the transmucosal absorption enhancer (PBS containing 5 mg/mL poly-L-arginine hydrochloride (molecular mass>70,000 (Sigma-Aldrich Japan Inc.)) was nasally administered to the mouse. Half an hour later, either 10 μL of globular adiponectin (PBS containing 1 mg/mL gAPN (Prospec)) or 10 μL of PBS was nasally administered to the mouse. On day 22 of nasal administration, the aforementioned mouse was euthanized in accordance with the method described in example 2, followed by collecting brain samples thereof. The hemispheres used for pathological analysis were immersion-fixed using 4% paraformaldehyde, followed by being embedded in paraffin. The other hemispheres used for western blotting were frozen by liquid nitrogen and stored at −80° C. […]

[7] = test system: α (alpha)S tg mouse; assay: Continuous nasal administration of globular adiponectin: immunohistochemical staining of brain; format: in vivo
Description: (§2) An α (alpha)S tg mouse and a non tg mouse were distinguished in accordance with the method described in example 2. Globular adiponectin (gAPN) was nasally administered to the α (alpha)S tg mouse and the non tg mouse on days 0, 3, 6, 9, 12, 15, 18 and 21. Further, as a control, PBS was nasally administered to the α (alpha)S tg mouse and the non tg mouse on days 0, 3, 6, 9, 12, 15, 18 and 21. When performing nasal administration, 10 μL of the transmucosal absorption enhancer (PBS containing 5 mg/mL poly-L-arginine hydrochloride (molecular mass>70,000 (Sigma-Aldrich Japan Inc.)) was nasally administered to the mouse. Half an hour later, either 10 μL of globular adiponectin (PBS containing 1 mg/mL gAPN (Prospec)) or 10 μL of PBS was nasally administered to the mouse. On day 22 of nasal administration, the aforementioned mouse was euthanized in accordance with the method described in example 2, followed by collecting brain samples thereof. The hemispheres used for pathological analysis were immersion-fixed using 4% paraformaldehyde, followed by being embedded in paraffin. The other hemispheres used for western blotting were frozen by liquid nitrogen and stored at −80° C.
Immunohistochemical staining was performed in a standard manner known to those skilled in the art. Briefly, thin sliced sections were prepared at a thickness of 4 μm, using the brain samples embedded in paraffin. After being deparaffinized, the thin sliced sections were placed in a 10 mM sodium citrate buffer solution (pH 6.0) to be subjected to an antigen activation treatment (95° C., 10 min) using microwave (MW). After completing the antigen activation treatment, the thin sliced sections were further treated for 15 min with methanol containing 3% hydrogen peroxide. After washing, the thin sliced sections were then subjected to blocking for 30 min, using 10% goat normal serum (Vector Laboratories, Inc.)/TBS (25 mM Tris-HCl (pH 7.5), 0.15 M NaCl). Later, the thin sliced sections were incubated overnight at 4° C. with a primary antibody (anti-α (alpha)-synuclein antibody or anti-GFAP antibody) diluted with 0.1% bovine serum albumin (BSA)/TBS. After washing, the thin sliced sections were further incubated for 20 min at room temperature with a secondary antibody (biotin labeled anti-mouse IgG antibody (Vector Laboratories, Inc.)) diluted with 0.1% BSA/TBS. When performing staining, there were used ABC kit (Vector Laboratories, Inc.) and 3,3′-diaminobenzidine tetrahydrochloride (DAB). After completing staining, the thin sliced sections were observed using a microscope.

[8] = test system: α (alpha)S tg mouse; assay: Continuous nasal administration of globular adiponectin: α-synuclein aggregation in various fractions; format: in vivo; details: cerebral cortex, gAPN-administered group
Description: as §2
The TBS soluble fraction, the SDS soluble fraction and the formic acid soluble fraction were prepared from the cerebral cortex of the brain sample in accordance with the method described in example 1. […]

[9] = nasal, days 0-21 every 3 days, brain on day 22

## CC(C)C[C@@H](C=O)NC(=O)[C@H](CC(C)C)NC(=O)[C@H](CC(C)C)NC(=O)OCc1ccccc1 [MG132] (Cbz-Leu-Leu-Leu-aldehyde)
[1]
  induction of adiponectin expression (mRNA): increased

## c1cc(-c2cnn3cc(-c4ccc(OCCN5CCCCC5)cc4)cnc23)ccn1 [Compound C]
[2]
  phosphorylated GSK-3β in surfactant soluble fraction: detected

## C[S+]([O-])c1ccc(-c2nc(-c3ccncc3)c(-c3ccc(F)cc3)[nH]2)cc1 (stereo not drawn) [SB203580]
[2]
  phosphorylated GSK-3β in surfactant soluble fraction: not detected

## APN siRNA: Rat adiponectin siRNA, sense strand SEQ. No. 15, antisense strand SEQ. No. 16 (sense CAAUGACUCUACAUUUACATT; antisense UGUAAAUGUAGAGUCAUUGTT; RNA strands with tt 3' overhangs, overhang chemistry not given here, further chemistry not given here)
[3]
  thioflavin T staining (aggregation of protein): thioflavin T-positive
[4]
  proteasomal activity: low
[5]
  α-synuclein in the formic acid soluble fraction: also detected

B1: gAPN: Globular adiponectin (Prospec); adiponectin isoform whose N-terminal collagen-like domain has been cut by protease (protein, listed as Homo sapiens)
chain: PGEGAYVYRSAFSVGLETYVTIPNMPIRFTKIFYNQQNHYDGSTGKFHCNIPGLYYFAYHITVYMKDVKVSLFKKDKAMLFTYDQYQENNVDQASGSVLLHLEVGDQVWLQVYGEGERNGLYADNDNDSTFTGFLLYHDTN
modifications: human adiponectin globular domain
notes: Globular adiponectin (Prospec); adiponectin isoform whose N-terminal collagen-like domain has been cut by protease
[6]
  GFAP in surfactant insoluble fraction: observed less
[7]; continuous nasal administration
  adverse effects: not observed particularly
[7]; [9]
  growth of astrocyte in cerebral cortex: hardly detected
  α-synuclein aggregates in olfactory bulb: hardly detected
  α-synuclein aggregates in thalamus: hardly detected
[8]
  amount of α-synuclein aggregates in SDS soluble fraction: decreased significantly
